Data on 2 compounds can be found in article PMC12274739, “Differential substrate degradation by super-degron: EGFP in wild-type mouse cells, PD-1 requires CRBN humanization” (iScience, 2025).

SMILES strings stand for the structures. Several values for one entry are separate records, joined by “and”; a condition that tells them apart may be missing. Equal entries are not always repeated. Where two headings read alike, the source gives them in different places.

The subject of one assay is EGFP-SD. It is filed as cell-based, mouse. To be noted: for Plateau, EGFP-SD degradation: control = 1; for K, EGFP-SD degradation: one phase decay.
A further assay deals with GL-261. In words: GL-261 orthotopic model, growth in brain by MRI. It is filed as in vivo, mouse. To be noted: Pdcd1SD/SD/CrbnI391V/I391V mice, IBR oral administration. An excerpt:
In vivo proliferation of another tumor cell line, GL-261 […], was also examined to confirm the effect of PD-1 reduction other than the MC-38 adenocarcinoma cell line.[34]
GL-261 cells were passaged one day before inoculation and resuspended in HBSS at a concentration of 1 × 10^7 cells/mL. The mice were anesthetized by intraperitoneal injection of a combination of the three drugs described in the previous section and immobilized in a stereotactic frame (RWD Life Science, US). After a midline scalp incision, a small burr hole located 2 mm to the right and 1 mm anterior to the bregma was drilled into the skull (AP:1.0 mm, ML:-2.0 mm). The syringe needle was inserted at a depth of 3.0 mm and then raised 0.4 mm to get to a depth of 2.6 mm. 2 μL of cell (2 x10^4 cells) was injected using a 10 μL syringe (Hamilton, USA) connected to a syringe pump (KD Scientific, US; injection rate: 0.5 μL/min). After injection, the needle was left in place for an additional 5 min to avoid backflow. […]
All the MR experiments were performed at the Medical Research Support Center, Graduate School of Medicine, Kyoto University, Japan. […] The respiratory rate and rectal temperature of the animals were continuously monitored using a dedicated system (Model 1025, MR-compartible Small Animal Monitoring & Gating System; SA Instruments, Inc., NY, USA) and software (PC-SAM V8.04; SA Instruments). […]

Assay [1] concerns mouse PD-1-mCherry-IKZF minimal tag. In words: Degradation of IKZF minimal-tagged mouse PD-1-mCherry in Jurkat cells. It is filed as cell-based, human. As to conditions: 24 h. An excerpt: To identify a tag that could efficiently knock down mouse PD-1, we connected various degron tags to the C-terminus of PD-1, including IKZF1/3, Sall4, ZFP91, and SD, and generated Jurkat human T cell lymphoma cell lines that stably expressed the mouse PD-1-degron tag (Figure 1A). As reported previously,[21]^,[22]^,[23] in mouse CRBN, the 391st amino acid corresponding to Val-388 of human CRBN is Ile, which causes a protrusion when a neo substrate binds to CRBN, resulting in a weaker affinity than in human CRBN (Figure 1B). Therefore, a human cell line was used because it was thought that mouse CRBN would not degrade SD by thalidomide analogs. […] We also analyzed the degradation of total proteins using mCherry.
Figure 1 Degradation of various degron-tagged mouse PD-1 in human Jurkat cell line (A) The protein construction of PD-1 tagged with mCherry and a degron tag. […] Valine 388 in human CRBN (red on the left) is replaced by isoleucine in mouse CRBN (gray on the right, over the red valine), causing a conflict between CRBN and IKZF1/3 (yellow ellipse). The stretch of the methyl group in isoleucine causing the conflict is indicated by a yellow arrow. (C) The amount of PD-1 and mCherry fused to IKZF minimal (blue, n = 1), IKZF full length (light blue, n = 1), Sall4 (orange, n = 1) or super degron (SD; red, n = 3) tags in Jurkat human T cell lymphomas 24 h after the addition of pomalidomide (POM) measured by flow cytometry. […] (C and D) The amount was standardized with the sample to which no reagent was added as 1. Concentrations of reagents were 0 (−), 5, 10, and 20 μM for IKZF minimal, IKZF full-length, and Sall4 tags and 0 (−), 0.5, 5 μM for SD tag. The dots indicate the results of the experiment for each of samples.

Assay [2] relates to mouse PD-1-mCherry-IKZF full-length tag. As to conditions: Jurkat, 24 h.
The subject of assay [3] is Ba/F3 mouse pro-B cell line. Details: method as in PMID 38484051. To be noted: cited from earlier work.
Where [4] appears, read: mouse wild-type cell lines, independent of IBR concentration.

With `O=C1CC[C@H](N2Cc3c(OCc4ccc(CN5CCOCC5)cc4)cccc3C2=O)C(=O)N1` [IBR, iberdomide], the “Tau, EGFP-SD degradation” value turned out to be 0.5057 in the assay on EGFP-SD (EL4, 0.01 µM IBR); 0.4779 in the assay with EGFP-SD (EL4, 0.1 µM IBR); 0.4762 with EGFP-SD (EL4, 1 µM IBR); 0.5217 in the assay with EGFP-SD (NIH/3T3, 0.01 µM IBR); 0.4536 with EGFP-SD (NIH/3T3, 0.1 µM IBR); 0.4422 in the assay on EGFP-SD (NIH/3T3, 1 µM IBR). Also, the “Tau, EGFP-SD degradation” value with EGFP-SD (mESCs, 0.01 µM IBR) was 0.9013; in the assay with EGFP-SD (mESCs, 0.1 µM IBR), 0.8006; in the assay with EGFP-SD (mESCs, 1 µM IBR), 0.8069. Besides, the “Plateau, EGFP-SD degradation” value in the assay with EGFP-SD (EL4, 0.01 µM IBR) is 0.106 and 0.11; in the assay on EGFP-SD (EL4, 0.1 µM IBR), 0.0948; with EGFP-SD (EL4, 1 µM IBR), 0.09035; with EGFP-SD (NIH/3T3, 0.01 µM IBR), 0.1206 and 0.12; in the assay on EGFP-SD (NIH/3T3, 0.1 µM IBR), 0.09879; with EGFP-SD (NIH/3T3, 1 µM IBR) it was 0.0887. In addition, the “Plateau, EGFP-SD degradation” value was 0.1599 and 0.16 in the assay with EGFP-SD (mESCs, 0.01 µM IBR); 0.1092 with EGFP-SD (mESCs, 0.1 µM IBR); 0.09822 in the assay on EGFP-SD (mESCs, 1 µM IBR). For the same compound, the “K, EGFP-SD degradation” value in the assay on EGFP-SD (EL4, 0.01 µM IBR) is recorded as 1.978; in the assay on EGFP-SD (EL4, 0.1 µM IBR), 2.093; with EGFP-SD (EL4, 1 µM IBR), 2.1; in the assay with EGFP-SD (NIH/3T3, 0.01 µM IBR), 1.917; in the assay with EGFP-SD (NIH/3T3, 0.1 µM IBR) it was 2.205; with EGFP-SD (NIH/3T3, 1 µM IBR), 2.261. The “K, EGFP-SD degradation” value is reported as 1.11 with EGFP-SD (mESCs, 0.01 µM IBR); 1.249 with EGFP-SD (mESCs, 0.1 µM IBR); 1.239 with EGFP-SD (mESCs, 1 µM IBR). In the assay with EGFP-SD (mESCs, NIH/3T3, EL4), the “time after which EGFP-SD expression was minimal” value was determined as 6 h. In the assay on EGFP-SD (setting [4]), the “time to halve the amount of EGFP-SD” value lay in the range of 20 to 40 min. Further, the “time to reduce EGFP-SD to 10%” value in the assay with EGFP-SD (setting [4]) is “approximately 3 h”. In the assay on GL-261, the “proliferation of GL-261” value is “suppressed”.
Turning to `Nc1cccc2c1C(=O)N(C1CCC(=O)NC1=O)C2=O` (centres unmarked) [POM, pomalidomide], in assay [1] (mCherry), the “LogDC50, mCherry (mC)” value is 0.04896 µM. Further, the “Bottom, mCherry (mC)” value in assay [1] (mCherry, no reagent = 1) stood at 0.8201; in assay [2] (mCherry, no reagent = 1) it was 0.6165. Further, the “LogDC50, PD-1 (FITC)” value in assay [1] (surface PD-1) is recorded as 0.1515 µM. Also, the “Bottom, PD-1 (FITC)” value in assay [1] (surface PD-1, no reagent = 1) was 0.53 and 0.5295; in assay [2] (surface PD-1, no reagent = 1), 0.32 and 0.3218. For the same compound, the proteins reduced result in assay [3] is given as “very few proteins”.
